Earlier results as cited in patent publication US20140100283A1, “Method to Increase Absorption and Bioavailability of Oral Glutathione” (Atlantic Pro Nutrients, Inc. dba XYMOGEN, priority 2012, published 2014).

Conditions: in vivo

N[C@@H](CCC(=O)N[C@@H](CS)C(=O)NCC(=O)O)C(=O)O [glutathione, Glutathione]
increase in circulating glutathione after oral administration: does not increase circulating glutathione to a clinically beneficial extent
